Key:
angiotensin II [1] = test: anaesthetized, normotensive rats, duration of action against angiotensin II after intraduodenal administration; type: in vivo, rat; conditions: for time to maximum angiotensin antagonistic action: after intraduodenal administration, Example 1 at 3 mg/kg
Protocol: FIG. 5 depicts the effect of known and prior art intraduodenally administered compounds on angiotensin II induced increases of mean arterial blood pressure in anaesthetized, normotensive rats.
FIGS. 6a) and b) depict the effect of known and prior art intraduodenally administered compounds on antiotensin II induced increases in mean arterial blood pressure in normotensive rats.
The duration of action of the substance was determined in anaesthetized, normotensive rats. Angiotensin II (1 μg.kg) was administered intravenously before substance administration and at 15 minute intervals after intraduodenal substance administration.

angiotensin II receptor [2] = test: isolated rat aorta, inhibition of maximum contraction due to angiotensin II; type: cell-based; conditions: for inhibition at 0.1 µM / inhibition at 0.01 µM / inhibition at 0.001 µM: Rattus norvegicus, angiotensin II 3 × 10^-7 mol/l; for inhibition at 0.1 µM: 10^-7 mol/l compound; for inhibition at 0.01 µM: 10^-8 mol/l compound; for inhibition at 0.001 µM: 10^-9 mol/l compound
Excerpt: FIGS. 1a) and b) depict the action of a compound according to the present invention and a compound of the prior art on the contractile force of an isolated rat aorta.
Isolated rat aorta: % inhibition of the maximum contraction

[3] = target: angiotensin II-1 subtype receptor; test: affinity for angiotensin II-1 subtype receptor on rat adrenal cortex microsomes (3H-DuP 753); type: binding; conditions: adrenal cortex microsomes of rats
Protocol: The affinity of the substances for the angiotensin II-1 subtype receptor was determined on adrenal cortex microsomes of rats (system: ^3 H-DuP 753).

angiotensin II [4] = test: pithed rats, inhibition of hypertensive action of angiotensin II; type: in vivo, rat
Excerpt: FIGS. 2a), b) and c) depict the effect of the presently claimed and known intravenously administered compounds on angiotensin II induced increases on diastolic blood pressure in pithed rats.
FIGS. 3a), b) and c) depict the effect of known and claimed intraduodenally administered compounds on angiotensin II induced increases of diastolic blood pressure in pithed rats.
FIG. 4 depicts further the effect of known and prior art intraduodenally administered compounds on angiotensin II induced increases of diastolic blood pressure in pithed rats.

angiotensin II receptor [5] = conditions: cited from earlier work
[6] = anaesthetized normotensive rats, intraduodenal

| SMILES | effectiveness relative to 10 mg/kg of DuP 753 (angiotensin II [1]; 3 mg/kg of Example 1, intraduodenal, anaesthetized normotensive rats) | time to maximum angiotensin antagonistic action (angiotensin II [1]) | sequence of potency (angiotensin II [1]; [6]) | onset of action (angiotensin II [1]; intraduodenal, normotensive rats) | inhibition at 0.1 µM (angiotensin II receptor [2]) | inhibition at 0.01 µM (angiotensin II receptor [2]) | inhibition at 0.001 µM (angiotensin II receptor [2]) | type of angiotensin II receptor antagonism (angiotensin II receptor [2]; isolated rat aorta) | IC50 [3] | type of inhibition of the hypertensive action of angiotensin II (angiotensin II [4]) | potency after intraduodenal administration (angiotensin II [4]; intraduodenal) | sequence of potency (angiotensin II [4]; intraduodenal) | potency relative to EXP 3174 (angiotensin II [4]; intravenous, Example 1 0.3-10 mg/kg) | potency relative to DuP 753 (angiotensin II [4]; intravenous, Example 1 0.3-10 mg/kg, DuP 753 1-10 mg/kg) | conversion on in vivo administration (angiotensin II receptor [5]; in vivo) | contribution to the duration of action of DuP 753 (angiotensin II receptor [5]; in vivo) | type of antagonism (angiotensin II receptor [5]; metabolite of DuP 753) | reduction of the maximum contraction due to angiotensin II (in words) (angiotensin II receptor [2]; isolated rat aorta, 10^-9 -10^-7 mol/l) |
| --- | --- | --- | --- | --- | --- | --- | --- | --- | --- | --- | --- | --- | --- | --- | --- | --- | --- | --- |
| CCCCc1nc(Cl)c(C(=O)OC(C)OC(=O)OCC)n1Cc1ccc(-c2ccccc2-c2nn[nH]n2)cc1 (stereo not drawn) [Example 1] | about twice as effective as 10 mg/kg of DuP 753 | 15 min | Example 1>DuP 753 | particularly rapid, dose-dependent onset of action | 98% | 72% | 63% | selective, non-competitive angiotensin II receptor antagonists | 79.4 nM | in a non-competitive manner | by far the most potent substance | Example 1>DuP 753>EXP 3174 | about as potent as EXP 3174 | slightly more potent than DuP 753 |  |  |  |  |
| CCCCc1nc(Cl)c(CO)n1Cc1ccc(-c2ccccc2-c2nnn[nH]2)cc1 [DuP 753, 2-n-butyl-4-chloro-5-hydroxymethyl-1-((2'-(1H-tetrazol-5-yl)biphenyl-4-yl)methyl)imidazole] |  | 30 to 60 min | Example 1>DuP 753 |  |  |  |  |  | 7.24 nM | competitive inhibition, that is to say to a parallel shift to the right of the dose-response curve of angiotensin II without a reduction in the maximum effect |  | Example 1>DuP 753>EXP 3174 |  |  | converted on in vivo administration to a non-competitive metabolite EXP 3174 |  |  |  |
| CCCCc1nc(Cl)c(C(=O)O)n1Cc1ccc(-c2ccccc2-c2nnn[nH]2)cc1 [EXP 3174, 2-n-butyl-4-chloro-1-((2'-(1H-tetrazol-5-yl)biphenyl-4-yl)methyl)imidazole-5-carboxylic acid] |  |  |  |  | 100% | 95% | 76% | selective, non-competitive angiotensin II receptor antagonists | 7.87 nM | in a non-competitive manner |  | Example 1>DuP 753>EXP 3174 |  |  |  | responsible to a large extent for the duration of action of DuP 753 | non-competitive | acting in a comparatively more potent manner |
